Structures are written as SMILES.

As for `CC(C)CN(C[C@@H](O)[C@H](Cc1ccccc1)NC(=O)[C@@H](NC(=O)CNC(=O)C(C)C)C(C)(C)C)S(=O)(=O)c1ccc2c(c1)OCO2` (stereo in doubt), the melting point (usually the temperature of the solid-liquid transition) fell in the range of 205 to 206 °C.

Values taken from patent publication US6562848B1, “Bis-amino acid sulfonamides as HIV protease inhibitors” (Bristol-Myers Squibb Company, priority 2001, dated 2003).
